This note sets out measurements from ChEMBL document CHEMBL2216747, “Effect of daurisoline on HERG channel electrophysiological function and protein expression” (J Nat Prod, 2012).

In data set [1] the test system is HEK293. Put plainly: Downregulation of human ERG expression in HEK293 cells assessed as decrease in intensity of 135 kDa band at 30 uM after 24 hrs by Western blot analysis. Particulars: hek293, 24 h. The format is ADME, cell-based.
The test system of data set [2] is IKr. Put plainly: Inhibition of Ikr tail current in guinea pig ventricular myocytes at 10 uM. Format: cell-based, Cavia porcellus, Ventricular myocyte.
Data set [3] deals with HEK293. Put plainly: Downregulation of human ERG expression in HEK293 cells assessed as decrease in intensity of 155 kDa band at 30 uM after 24 hrs by Western blot analysis. The format is ADME, cell-based. To be noted: hek293, 24 h.
Data set [4] addresses IKs (KCNE1) (Cavia porcellus, UniProt Q60409). Put plainly: Inhibition of Iks tail current in guinea pig ventricular myocytes at 100 uM. The format is cell-based, Ventricular myocyte.
In data set [5] the target is Potassium voltage-gated channel subfamily E member 1 (Oryctolagus cuniculus, UniProt Q28705). Put plainly: Inhibition of Iks tail current in rabbit ventricular myocytes. Format: cell-based, Ventricular myocyte.
For data set [6], the system named is HEK293. Kind of data set: Downregulation of human ERG expression in HEK293 cells assessed as change in intensity of 155 kDa band at 1 to 10 uM after 24 hrs by Western blot analysis. Format: ADME, cell-based. Particulars: hek293, 24 h.
The nature of data set [7]: Cmax in dog at 30 uM, iv administered as bolus dose. More on the design: dose 30 uM, route intravenous. Particulars: in vivo. Format: ADME, organism-based, Canis lupus familiaris.
Data set [8] has as its system HEK293. Kind of data set: Downregulation of human ERG mRNA expression in HEK293 cells at 30 uM after 24 hrs by qRT-PCR analysis. Format: ADME, cell-based. Particulars: hek293, 24 h.
A short description of data set [9]: Cmax in rabbit at 30 uM, iv administered as bolus dose. Particulars: in vivo. Format: ADME, organism-based, Oryctolagus cuniculus. Details: dose 30 uM, route intravenous.
Data set [10] in a line: Inhibition of Ikr tail current in rabbit ventricular myocytes. Particulars: Oryctolagus cuniculus, Ventricular myocyte. Format: cell-based.
The test system of data set [11] is HEK293. Kind of data set: Downregulation of human ERG expression in HEK293 cells assessed as change in intensity of 135 kDa band at 1 to 10 uM after 24 hrs by Western blot analysis. Format: ADME, cell-based. To be noted: hek293, 24 h.
Data set [12] has as its system HEK293. Kind of data set: Downregulation of human ERG mRNA expression in HEK293 cells at 30 uM after 24 hrs by RT-PCR analysis. The format is ADME, cell-based. Particulars: hek293, 24 h.
For data set [13], the system named is HEK293. Kind of data set: Reduction in human ERG-tail density expressed in HEK293 cells at 30 uM after 24 hrs by densitometric analysis. The format is ADME, cell-based. To be noted: hek293, 24 h.

Sequence of Potassium voltage-gated channel subfamily E member 1 (Q28705 whole entry): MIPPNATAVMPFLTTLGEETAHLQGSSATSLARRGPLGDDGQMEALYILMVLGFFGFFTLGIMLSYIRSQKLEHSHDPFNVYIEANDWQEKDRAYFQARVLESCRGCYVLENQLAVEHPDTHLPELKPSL
Sequence of IKs (KCNE1) (Q60409 whole entry): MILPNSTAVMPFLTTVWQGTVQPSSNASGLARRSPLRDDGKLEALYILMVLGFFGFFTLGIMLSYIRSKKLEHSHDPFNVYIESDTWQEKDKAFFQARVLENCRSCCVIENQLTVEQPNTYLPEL

As to `COc1cc2c(cc1O)[C@@H](Cc1ccc(O)c(Oc3ccc(C[C@@H]4c5cc(OC)c(OC)cc5CCN4C)cc3)c1)N(C)CC2` [DARUISOLINE], the Activity result is listed as “Toxic” in data set [1]; “Toxic” in data set [3]; “Non-toxic” in data set [6]; “Toxic” in data set [8]; “Non-toxic” in data set [11]; “Toxic” in data set [12]. For the same compound, in data set [13], the Activity result is “Toxic”. Besides, in [2], at 10 µM the inhibition was 39%. Further, in data set [4], the inhibition at 100 µM is 50%. The IC50 in data set [5] came to 52.5 µM; in [10] it was 19.9 µM. Also, the Cmax at 30 µM in data set [7] and in data set [9] was 1700 nM each time.
